The numbers were not newly measured in patent US9585850B2, “Methods of treatment using arylcyclopropylamine compounds” (Duke University, priority 2011, dated 2017), which cites them from elsewhere.

This data set concerns DDD mice. The settings on record: Sotnikova et al.
For `N[C@@H](Cc1ccc(O)c(O)c1)C(=O)O` [L-DOPA, L-3,4-dihydroxyphenylalanine], the “restoration of locomotion / treatment of akinesia in DDD mice” value is given as “fully restored locomotion”.

As for `CN1CCc2cccc3c2[C@H]1Cc1ccc(O)c(O)c1-3` [apomorphine], the “restoration of locomotion / treatment of akinesia in DDD mice” value is listed as “effective in treating akinesia”. `CCCN1C[C@H](CSC)C[C@@H]2c3cccc4[nH]cc(c34)C[C@H]21` [pergolide]: the “restoration of locomotion / treatment of akinesia in DDD mice” value is “effective in treating akinesia”.
